Reference: US20260285857A1, “BICYCLIC AND HETEROCYCLIC AMIDE COMPOUNDS” (priority 2024, published 2026)

Test system: immunoglobulin light chain protein WIL-FL T46L
Assay: Differential scanning fluorimetry (thermal shift) assay
Assay type: binding
Conditions: Table B; temperature shift [Tm]compound-[Tm]vehicle; recombinant WIL-FL T46L

SMILES | DSF
CCC(=O)NCC12COC(c3nc4c(C)cc(N5CC[C@](C)(c6ccccc6)C5)cn4n3)(C1)C2 [Compound 462] | ***** (>2.5° C.=*****)
CCS(=O)(=O)NCC12COC(c3nc4c(C)cc(N5CC[C@](C)(c6ccccc6)C5)cn4n3)(C1)C2 [Compound 463] | ***** (>2.5° C.=*****)
Cc1cc(N2CC[C@](C)(c3ccccc3)C2)cn2nc(C34CC(C#N)(CO3)C4)nc12 [Compound 464, (R)-1-(8-methyl-6-(3-methyl-3-phenylpyrrolidin-1-yl)-[1,2,4]triazolo[1,5-a]pyridin-2-yl)-2-oxabicyclo[2.1.1]hexane-4-carbonitrile] | ***** (>2.5° C.=*****)
Cc1cc(N2CC[C@](C)(c3ccccc3)C2)cn2nc(C34CC(Nc5cccc(C(=O)O)n5)(CO3)C4)nc12 [Compound 465, (R)-6-((1-(8-methyl-6-(3-methyl-3-phenylpyrrolidin-1-yl)-[1,2,4]triazolo[1,5-a]pyridin-2-yl)-2-oxabicyclo[2.1.1]hexan-4-yl)amino)picolinic acid] | ***** (>2.5° C.=*****)
Cc1cc(N2CC[C@](C)(c3ccccc3)C2)cn2nc(C34CC(NC(=O)c5cccc(C(=O)O)n5)(CO3)C4)nc12 [Compound 466, (R)-6-((1-(8-methyl-6-(3-methyl-3-phenylpyrrolidin-1-yl)-[1,2,4]triazolo[1,5-a]pyridin-2-yl)-2-oxabicyclo[2.1.1]hexan-4-yl)carbamoyl)picolinic acid] | ***** (>2.5° C.=*****)
Cc1cc(N2CC[C@](C)(c3ccccc3)C2)cn2nc(C34CC(NC(=O)C5(C(=O)O)CCC5)(CO3)C4)nc12 [Compound 467] | ***** (>2.5° C.=*****)
Cc1cc(N2CC[C@](C)(c3ccccc3)C2)cn2nc(C34CC(NC(=O)C5CC(C(=O)O)C5)(CO3)C4)nc12 (stereo partly drawn) [Compound 468] | ***** (>2.5° C.=*****)
Cc1cc(N2CC[C@](C)(c3ccccc3)C2)cn2nc(C34CC(N5CCC(C(=O)O)CC5=O)(CO3)C4)nc12 (stereo partly drawn) [Compound 469, 1-(1-(8-methyl-6-((R)-3-methyl-3-phenylpyrrolidin-1-yl)-[1,2,4]triazolo[1,5-a]pyridin-2-yl)-2-oxabicyclo[2.1.1]hexan-4-yl)-2-oxopiperidine-4-carboxylic acid] | ***** (>2.5° C.=*****)
Cc1cc(N2CC[C@](C)(c3ccccc3)C2)cn2nc(C34CC(N5CC6(CC6C(=O)O)C5)(CO3)C4)nc12 (stereo partly drawn) [Compound 470, 5-[1-[8-methyl-6-[(3R)-3-methyl-3-phenyl-pyrrolidin-1-yl]-[1,2,4]triazolo[1,5-a]pyridin-2-yl]-2-oxabicyclo[2.1.1]hexan-4-yl]-5-azaspiro[2.3]hexane-2-carboxylic acid] | ***** (>2.5° C.=*****)
Cc1cc(N2CC[C@@](C)(n3ccc(C(F)(F)F)n3)C2)cn2nc(C34CC(N)(CO3)C4)nc12 [Compound 471, (R)-1-(8-methyl-6-(3-methyl-3-(3-(trifluoromethyl)-1H-pyrazol-1-yl)pyrrolidin-1-yl)-[1,2,4]triazolo[1,5-a]pyridin-2-yl)-2-oxabicyclo[2.1.1]hexan-4-amine] | **** (>1.5-2.5° C.=****)
Cc1cc(N2CC[C@](C)(c3ccccc3)C2)cn2nc(C34CC(N5CCC(C(=O)O)CC5)(CO3)C4)nc12 [Compound 472, (R)-1-(1-(8-methyl-6-(3-methyl-3-phenylpyrrolidin-1-yl)-[1,2,4]triazolo[1,5-a]pyridin-2-yl)-2-oxabicyclo[2.1.1]hexan-4-yl)piperidine-4-carboxylic acid] | ***** (>2.5° C.=*****)
Cc1cc(N2CC[C@](C)(c3ccccc3)C2)cn2nc(C34CC(CO)(C3)C(C)(C)O4)nc12 [Compound 473, (R)-(3,3-dimethyl-1-(8-methyl-6-(3-methyl-3-phenylpyrrolidin-1-yl)-[1,2,4]triazolo[1,5-a]pyridin-2-yl)-2-oxabicyclo[2.1.1]hexan-4-yl)methanol] | ***** (>2.5° C.=*****)
Cc1cc(N2CC[C@](C)(c3ccccc3)C2)cn2nc(C3OC4(C)CC3(C(=O)O)C4)nc12 (stereo partly drawn) [Compound 474, 1-methyl-3-[8-methyl-6-[(3R)-3-methyl-3-phenyl-pyrrolidin-1-yl]-[1,2,4]triazolo[1,5-a]pyridin-2-yl]-2-oxabicyclo[2.1.1]hexane-4-carboxylic acid] | **** (>1.5-2.5° C.=****)
CCC(=O)NC12CC(C)(C1)OC2c1nc2c(C)cc(N3CC[C@](C)(c4ccccc4)C3)cn2n1 (stereo partly drawn) [Compound 475, N-[1-methyl-3-[8-methyl-6-[(3R)-3-methyl-3-phenyl-pyrrolidin-1-yl]-[1,2,4]triazolo[1,5-a]pyridin-2-yl]-2-oxabicyclo[2.1.1]hexan-4-yl]propanamide] | ***** (>2.5° C.=*****)
Cc1cc(N2CC[C@](C)(c3ccccc3)C2)cn2nc(C3OC4(C)CC3(C(N)=O)C4)nc12 (stereo partly drawn) [Compound 476] | ***** (>2.5° C.=*****)
Cc1cc(N2CC[C@](C)(c3ccccc3)C2)cn2nc(C34CC(CO3)C4C(=O)Nc3cccc(C(=O)O)n3)nc12 (stereo partly drawn) [Compound 478] | ***** (>2.5° C.=*****)
C[C@]1(c2ccccc2)CCN(c2cc(CO)c3nc(C45CC(CO4)C5c4ncn[nH]4)nn3c2)C1 (stereo partly drawn) [Compound 479] | ***** (>2.5° C.=*****)
Cc1cc(N2CC[C@](C)(c3ccccc3)C2)cn2nc(C34CC(CO3)C4Cn3cc(CO)nn3)nc12 (stereo partly drawn) [Compound 481] | ***** (>2.5° C.=*****)
Cc1cc(N2CC[C@](C)(c3ccccc3)C2)cn2nc(C34CC(CO3)C4Cn3ncc(CO)n3)nc12 (stereo partly drawn) [Compound 482] | ***** (>2.5° C.=*****)
Cc1n[nH]c(C2C3COC2(c2nc4c(CN)cc(N5CC[C@](C)(c6ccccc6)C5)cn4n2)C3)n1 (stereo partly drawn) [Compound 483] | ***** (>2.5° C.=*****)

SMILES | DSF
Cc1cc(C2C3COC2(c2nc4c(C)cc(N5CC[C@](C)(c6ccccc6)C5)cn4n2)C3)[nH]n1 (stereo partly drawn) [Compound 484] | ***** (>2.5° C.=*****)
Cc1nc(C2C3COC2(c2nc4c(C)cc(N5CC[C@](C)(c6ccccc6)C5)cn4n2)C3)cs1 (stereo partly drawn) [Compound 485] | ***** (>2.5° C.=*****)
Cc1cc(OC[C@H](C)c2ccccc2)cn2nc(C34CC(CO3)C4Cn3ncnc3C)nc12 (stereo partly drawn) [Compound 486, 8-methyl-2-[5-[(5-methyl-1,2,4-triazol-1-yl)methyl]-2-oxabicyclo[2.1.1]hexan-1-yl]-6-[(2R)-2-phenylpropoxy]-[1,2,4]triazolo[1,5-a]pyridine] | **** (>1.5-2.5° C.=****)
Cc1ncn(CC2C3COC2(c2nc4c(C)cc(OC[C@H](C)c5ccccc5)cn4n2)C3)n1 (stereo partly drawn) [Compound 487, 8-methyl-2-(5-((3-methyl-1H-1,2,4-triazol-1-yl)methyl)-2-oxabicyclo[2.1.1]hexan-1-yl)-6-((R)-2-phenylpropoxy)-[1,2,4]triazolo[1,5-a]pyridine] | *** (>1-1.5° C.=***)
Cc1cc(N2CC[C@](C)(c3ccccc3)C2)cn2nc(C34CC(CO3)C4CN3CCN(C)C(=O)C3)nc12 (stereo partly drawn) [Compound 488] | ***** (>2.5° C.=*****)
C[C@]1(c2ccccc2)CCN(c2cc(CO)c3nc(C45CC(CO4)C5CO)nn3c2)C1 (stereo partly drawn) [Compound 489] | ***** (>2.5° C.=*****)
Cc1cc(N2CC[C@](C)(c3ccccc3)C2)cn2nc(C34CC(CO3)C4CN3CCC(C(=O)O)CC3=O)nc12 (stereo partly drawn) [Compound 490] | ***** (>2.5° C.=*****)
Cc1n[nH]c([C@H]2[C@H]3CO[C@]2(c2nc4c(C)cc(N5CC[C@](C)(c6ccccc6)C5)cn4n2)C3)n1 [Compound 491, 8-methyl-6-[(3R)-3-methyl-3-phenyl-pyrrolidin-1-yl]-2-[(1R,4S,5R)-5-(3-methyl-1H-1,2,4-triazol-5-yl)-2-oxabicyclo[2.1.1]hexan-1-yl]-[1,2,4]triazolo[1,5-a]pyridine] | ***** (>2.5° C.=*****)
Cc1n[nH]c([C@@H]2[C@@H]3CO[C@@]2(c2nc4c(C)cc(N5CC[C@](C)(c6ccccc6)C5)cn4n2)C3)n1 [Compound 492, 8-methyl-6-[(3R)-3-methyl-3-phenyl-pyrrolidin-1-yl]-2-[(1S,4R,5S)-5-(3-methyl-1H-1,2,4-triazol-5-yl)-2-oxabicyclo[2.1.1]hexan-1-yl]-[1,2,4]triazolo[1,5-a]pyridine] | ***** (>2.5° C.=*****)
Cc1nc(C2C3COC2(c2nc4c(C)cc(N5CC[C@](C)(c6ccccc6)C5)cn4n2)C3)n(C)n1 (stereo partly drawn) [Compound 493] | ***** (>2.5° C.=*****)
Cc1cc(N2CC[C@](C)(c3ccccc3)C2)cn2nc(C34CC(CO3)C4c3ncn[nH]3)nc12 (stereo partly drawn) [Compound 494] | ***** (>2.5° C.=*****)
C[C@]1(c2ccccc2)CCN(c2cc(CO)c3nc(C45CC(CO4)C5C(N)=O)nn3c2)C1 (stereo partly drawn) [Compound 495] | ***** (>2.5° C.=*****)
Cc1cc(N2CC[C@@](C)(n3ccc(C(F)(F)F)n3)C2)cn2nc(C34CC(CO3)C4c3nc(N)n[nH]3)nc12 (stereo partly drawn) [Compound 496, 5-(1-(8-methyl-6-((R)-3-methyl-3-(3-(trifluoromethyl)-1H-pyrazol-1-yl)pyrrolidin-1-yl)-[1,2,4]triazolo[1,5-a]pyridin-2-yl)-2-oxabicyclo[2.1.1]hexan-5-yl)-1H-1,2,4-triazol-3-amine] | **** (>1.5-2.5° C.=****)
Cc1cc(N2CC[C@](C)(c3ccccc3)C2)cn2nc(C34CC(CO3)C4COC3CC4(C3)CN(c3ccnc(O)c3)C4)nc12 (stereo partly drawn) [Compound 497, 4-(6-((1-(8-methyl-6-((R)-3-methyl-3-phenylpyrrolidin-1-yl)-[1,2,4]triazolo[1,5-a]pyridin-2-yl)-2-oxabicyclo[2.1.1]hexan-5-yl)methoxy)-2-azaspiro[3.3]heptan-2-yl)pyridin-2-ol] | ***** (>2.5° C.=*****)
COC(=O)NCC1C2COC1(c1nc3c(C)cc(N4CC[C@](C)(c5ccccc5)C4)cn3n1)C2 (stereo partly drawn) [Compound 498] | ***** (>2.5° C.=*****)
COc1ccc(OCC2C3COC2(c2nc4c(C)cc(N5CC[C@](C)(c6ccccc6)C5)cn4n2)C3)cn1 (stereo partly drawn) [Compound 499] | ***** (>2.5° C.=*****)
Cc1cc(N2CC[C@](C)(c3ccccc3)C2)cn2nc(C34CC(CO3)C4COc3ccc(=O)[nH]c3)nc12 (stereo partly drawn) [Compound 500] | ***** (>2.5° C.=*****)
Cc1cc(N2CC[C@](C)(c3ccccc3)C2)cn2nc(C34CC(CO3)C4COC3CC4(CNC4)C3)nc12 (stereo partly drawn) [Compound 501] | ***** (>2.5° C.=*****)
Cc1cc(N2CC[C@](C)(c3ccccc3)C2)cn2nc(C34CC(CO3)C4COC3CCN(c4ccnc(C(=O)O)c4)CC3)nc12 (stereo partly drawn) [Compound 502] | ***** (>2.5° C.=*****)
